The molecules below were run against T1, IRAK4 (Homo sapiens, UniProt Q9NWZ3) (assay: IRAK4 Inhibition Assay). Conditions: ATP 500 μM; fluoresceinated peptide 1.5 μM; IRAK4 0.6 nM; 60 min room temperature; Caliper LABCHIP.
T1 sequence (Q9NWZ3 1-460): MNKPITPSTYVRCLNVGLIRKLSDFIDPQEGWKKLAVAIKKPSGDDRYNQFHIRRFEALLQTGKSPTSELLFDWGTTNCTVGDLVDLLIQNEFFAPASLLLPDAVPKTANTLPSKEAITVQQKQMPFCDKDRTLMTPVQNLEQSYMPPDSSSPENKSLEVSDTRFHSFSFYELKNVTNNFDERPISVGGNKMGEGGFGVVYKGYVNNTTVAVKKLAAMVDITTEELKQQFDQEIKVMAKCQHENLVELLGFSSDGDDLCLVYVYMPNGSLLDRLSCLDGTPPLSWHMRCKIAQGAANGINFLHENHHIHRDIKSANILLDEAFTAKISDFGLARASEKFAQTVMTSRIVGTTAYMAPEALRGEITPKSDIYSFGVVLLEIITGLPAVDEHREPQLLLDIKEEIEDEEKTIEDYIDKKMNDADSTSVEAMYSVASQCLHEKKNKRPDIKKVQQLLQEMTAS
Format: biochemical
Description: The assays were performed in U-bottom 384-well plates. The final assay volume was 30 μL prepared from 15 μL additions of enzyme and substrates (fluoresceinated peptide and ATP) and test compounds in assay buffer (20 mM HEPES pH 7.2, 10 mM MgCl2, 0.015% Brij 35 and 4 mM DTT). The reaction was initiated by the combination of IRAK4 with substrates and test compounds. The reaction mixture was incubated at room temperature for 60 min. and terminated by adding 45 μL of 35 mM EDTA to each sample. The reaction mixture was analyzed on the Caliper LABCHIP® 3000 (Caliper, Hopkinton, MA) by electrophoretic separation of the fluorescent substrate and phosphorylated product. Inhibition data were calculated by comparison to no enzyme control reactions for 100% inhibition and vehicle-only reactions for 0% inhibition. The final concentrations of reagents in the assays are ATP, 500 μM; FL-IPTSPITTTYFFFKKK peptide 1.5 μM; IRAK4, 0.6 nM; and DMSO, 1.6%.

Structure (SMILES) | IC50
CC(C)Nc1c(C(=O)NC2CCCOC2)cnc2c1[nH]c1cc(C#N)ccc12 (stereo not drawn) [Example 6, 7-cyano-4-(isopropylamino)-N-(tetrahydro-2H-pyran-3-yl)-5H-pyrido[3,2-b]indole-3-carboxamide] | 0.037 µM
CC(C)Nc1c(C(=O)NCC2(CO)CC2)cnc2c1[nH]c1cc(C#N)ccc12 [Example 8, 7-cyano-N-((1-(hydroxymethyl)cyclopropyl)methyl)-4-(isopropylamino)-5H-pyrido[3,2-b]indole-3-carboxamide] | 0.33 µM
CC(C)Nc1c(C(=O)NCC(C)(C)CO)cnc2c1[nH]c1cc(C#N)ccc12 [Example 9, 7-cyano-N-(3-hydroxy-2,2-dimethylpropyl)-4-(isopropylamino)-5H-pyrido[3,2-b]indole-3-carboxamide] | 0.33 µM
CC(C)Nc1c(C(=O)NC(CCO)C2CC2)cnc2c1[nH]c1cc(C#N)ccc12 (stereo not drawn) [Example 16, 7-cyano-N-(1-cyclopropyl-3-hydroxypropyl)-4-(isopropylamino)-5H-pyrido[3,2-b]indole-3-carboxamide] | 0.31 µM
CC(C)(O)CCNC(=O)c1cnc2c([nH]c3cc(C#N)ccc32)c1N[C@@H]1CCOC1 [Example 26, (R)-7-cyano-N-(3-hydroxy-3-methylbutyl)-4-((tetrahydrofuran-3-yl)amino)-5H-pyrido[3,2-b] indole-3-carboxamide] | 0.033 µM
CC(C)(O)CCNC(=O)c1cnc2c([nH]c3cc(C#N)ccc32)c1N[C@H]1CCOC1 [Example 28, (S)-7-cyano-N-(3-hydroxy-3-methylbutyl)-4-((tetrahydrofuran-3-yl)amino)-5H-pyrido[3,2-b]indole-3-carboxamide] | 0.048 µM
CC(C)(O)CCNC(=O)c1cnc2c([nH]c3cc(C#N)ccc32)c1NCC(F)(F)F [Example 37, 7-cyano-N-(3-hydroxy-3-methylbutyl)-4-((2,2,2-trifluoroethyl)amino)-5H-pyrido[3,2-b]indole-3-carboxamide] | 0.014 µM
N#Cc1ccc2c(c1)[nH]c1c(NC3COC3)c(C(=O)NCCC(F)(F)F)cnc12 [Example 42, 7-cyano-4-(oxetanylamino)-N-(3,3,3-trifluoropropyl)-5H-pyrido[3,2-b]indole-3-carboxamide] | 0.024 µM

Next, values leading:

IC50 | Structure (SMILES)
0.17 µM | CC(C)Nc1c(C(=O)NCC2(CO)COC2)cnc2c1[nH]c1cc(C#N)ccc12 [Example 7, 7-cyano-N-((3-(hydroxymethyl)oxetan-3-yl)methyl)-4-(isopropylamino)-5H-pyrido[3,2-b]indole-3-carboxamide]
0.027 µM | CC(C)Nc1c(C(=O)NC2CCOCC2)cnc2c1[nH]c1cc(C#N)ccc12 [Example 11, 7-cyano-4-(isopropylamino)-N-(tetrahydro-2H-pyran-4-yl)-5H-pyrido[3,2-b]indole-3-carboxamide]
0.02 µM | CC(C)Nc1c(C(=O)NC2CCNCC2)cnc2c1[nH]c1cc(C#N)ccc12 [Example 19, 7-cyano (isopropylamino)-N-(piperidin-4-yl)-5H-pyrido[3,2-b]indole-3-carboxamide]
0.12 µM | CC(C)Nc1c(C(=O)N[C@H]2C[C@@H](O)C2)cnc2c1[nH]c1cc(C#N)ccc12 [Example 24, 7-cyano-N-((1s,3s)-3-hydroxycyclobutyl)-4-(isopropylamino)-5H-pyrido[3,2-b]indole-3-carboxamide]
0.011 µM | C[C@H](Nc1c(C(=O)NCCC(C)(C)O)cnc2c1[nH]c1cc(C#N)ccc12)C1CC1 [Example 29, (S)-7-cyano-4-((1-cyclopropylethyl)amino)-N-(3-hydroxy-3-methylbutyl)-5H-pyrido[3,2-b]indole-3-carboxamide]
0.0308 µM | CC(C)(O)CCNC(=O)c1cnc2c([nH]c3cc(C#N)ccc32)c1NCC1CC1 [Example 33, 7-cyano-4-((cyclopropylmethyl)amino)-N-(3-hydroxy-3-methylbutyl)-5H-pyrido[3,2-b] indole-3-carboxamide]
0.0092 µM | CC(C)(O)CCNC(=O)c1cnc2c([nH]c3cc(C#N)ccc32)c1NC1COC1 [Example 41, 7-cyano-N-(3-hydroxy-3-methylbutyl) (oxetan-3-ylamino)-5H-pyrido[3,2-b]indole-3-carboxamide]

— US12421230B2, “Tricyclic heteroaryl compounds useful as IRAK4 inhibitors” (BRISTOL-MYERS SQUIBB COMPANY, priority 2020, dated 2025)
